Patent publication US9738655B2, “Tetrahydroisoquinolines containing substituted azoles as factor XIa inhibitors” (BRISTOL-MYERS SQUIBB COMPANY, priority 2013, dated 2017)
pKi: −log10 of the molar value. Where a name gives a salt, the structure may show the parent alone. Read-outs that look alike come from different tables or passages of the source.

How the values were obtained:
[1] = target: purified human Factor XIa (Homo sapiens (Human), UniProt P03951); test: Factor XIa enzyme inhibition assay (chromogenic substrate S-2366)
[2] = target: purified human plasma kallikrein (Homo sapiens (Human), UniProt P03952); test: Plasma kallikrein enzyme inhibition assay (chromogenic substrate S-2302); format: biochemical
[3] = read-out: Factor XIa Ki, measured at 25° C.
[4] = measured at 25° C. (no asterisk)

Chain of purified human Factor XIa (P03951 388-625): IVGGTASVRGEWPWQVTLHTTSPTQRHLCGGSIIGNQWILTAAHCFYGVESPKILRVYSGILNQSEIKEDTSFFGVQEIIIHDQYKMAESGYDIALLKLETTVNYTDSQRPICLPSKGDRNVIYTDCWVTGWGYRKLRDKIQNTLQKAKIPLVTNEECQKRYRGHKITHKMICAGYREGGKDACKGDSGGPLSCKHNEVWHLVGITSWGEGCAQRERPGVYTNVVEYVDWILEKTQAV
Chain of purified human Factor XIa (P03951 19-387 partner): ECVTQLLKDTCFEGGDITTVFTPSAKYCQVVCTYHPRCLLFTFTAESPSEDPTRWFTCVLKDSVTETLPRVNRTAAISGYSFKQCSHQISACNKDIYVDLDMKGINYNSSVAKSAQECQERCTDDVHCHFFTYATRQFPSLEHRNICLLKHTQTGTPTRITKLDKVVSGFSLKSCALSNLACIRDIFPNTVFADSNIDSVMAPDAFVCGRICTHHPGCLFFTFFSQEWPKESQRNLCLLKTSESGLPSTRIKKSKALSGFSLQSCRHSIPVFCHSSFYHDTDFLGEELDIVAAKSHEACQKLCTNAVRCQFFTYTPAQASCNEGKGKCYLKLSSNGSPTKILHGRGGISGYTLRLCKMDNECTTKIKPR
Chain of purified human plasma kallikrein (P03952 391-638): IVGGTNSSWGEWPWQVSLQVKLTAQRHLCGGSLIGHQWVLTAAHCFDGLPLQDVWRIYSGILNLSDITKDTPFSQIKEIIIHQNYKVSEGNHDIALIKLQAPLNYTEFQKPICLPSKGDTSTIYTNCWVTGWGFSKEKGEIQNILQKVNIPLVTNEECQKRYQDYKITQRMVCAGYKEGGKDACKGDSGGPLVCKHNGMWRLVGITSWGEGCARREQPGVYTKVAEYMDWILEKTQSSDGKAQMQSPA
Chain of purified human plasma kallikrein (P03952 20-390 partner): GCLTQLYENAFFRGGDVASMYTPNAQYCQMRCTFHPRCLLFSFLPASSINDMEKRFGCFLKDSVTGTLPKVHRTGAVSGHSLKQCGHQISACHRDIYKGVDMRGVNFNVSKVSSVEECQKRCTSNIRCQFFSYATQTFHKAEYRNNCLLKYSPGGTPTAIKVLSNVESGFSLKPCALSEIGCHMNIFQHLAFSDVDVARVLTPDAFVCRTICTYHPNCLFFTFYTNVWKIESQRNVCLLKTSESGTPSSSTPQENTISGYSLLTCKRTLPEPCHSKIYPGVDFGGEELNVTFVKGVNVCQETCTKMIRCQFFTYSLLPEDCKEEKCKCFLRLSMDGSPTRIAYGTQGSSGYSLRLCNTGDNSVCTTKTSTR

Row | SMILES | pKi [1, 3] | pKi ([2]; measured at 37° C. (*)) | pKi [1] | pKi [2, 4]
1 | COC1CCN(c2cccc3c2CCN(C(=O)c2cnn(-c4cccnc4)c2)C3C(=O)Nc2ccc(C(=O)O)cc2)CC1 (stereo not drawn) [Example 330, 4-(5-(4-methoxypiperidin-1-yl)-2-(1-(pyridin-3-yl)-1H-pyrazolc-4-carbonyl)-1,2,3,4-tetrahydroisoquinoline-1-carboxamido)benzoic acid, 2 TFA salt] | 5.45 | < 5.22 |  | 
2 | Cn1ccc(-c2cccc3c2CCN(C(=O)c2cn(-c4cccc(Cl)c4F)nn2)C3C(=O)Nc2ccc(C(=O)O)cc2)n1 (stereo not drawn) [Example 43, 4-(2-(1-(3-chloro-2-fluorophenyl)-1H-1,2,3-triazole-4-carbonyl)-5-(1-methyl-1H-pyrazol-3-yl)-1,2,3,4-tetrahydroisoquinoline-1-carboxamido)benzoic acid] |  |  | > 8.30 | 7.79
3 | CN(C)C(=O)C1CCN(c2cccc3c2CCN(C(=O)c2cnn(-c4cccc(Cl)c4F)c2)C3C(=O)Nc2ccc(C(=O)O)cc2)CC1 (stereo not drawn) [Example 59, 4-(2-(1-(3-chloro-2-fluorophenyl)-1H-pyrazole-4-carbonyl)-5-(4-(dimethylcarbamoyl)piperidin-1-yl)-1,2,3,4-tetrahydroisoquinoline-1-carboxamido)benzoic acid, TFA salt] | > 8.30 |  |  | 8.00
4 | CN1CCN(c2cccc3c2CCN(C(=O)C2CC(c4cccc(Cl)c4)=NO2)C3C(=O)Nc2ccc(C(=O)O)cc2)CC1 (stereo not drawn) [Example 217, 4-(2-(3-(3-chlorophenyl)-4,5-dihydroisoxazole-5-carbonyl)-5-(4-methylpiperazin-1-yl)-1,2,3,4-tetrahydroisoquinoline-1-carboxamido)benzoic acid, 2 TFA salt] | 7.82 |  |  | 8.51
5 | COC(=O)c1ccc(NC(=O)[C@@H]2c3cccc(-c4cncnc4)c3CCN2C(=O)c2cn(-c3cccc(Cl)c3F)nn2)cc1 [Example 26, (S)-Methyl 4-(2-(1-(3-chloro-2-fluorophenyl)-1H-1,2,3-triazole-4-carbonyl)-5-(pyrimidin-5-yl)-1,2,3,4-tetrahydroisoquinoline-1-carboxamido)benzoate] | 8.15 | 7.21 |  | 
6 | O=C(Nc1ccc(-c2ncc[nH]2)cc1)[C@@H]1c2cccc(-c3cncnc3)c2CCN1C(=O)[C@H]1CC(c2cccc(Cl)c2F)=NO1 [Example 134, (S)-N-(4-(1H-Imidazol-2-yl)phenyl)-2-((R)-3-(3-chloro-2-fluorophenyl)-4,5-dihydroisoxazole-5-carbonyl)-5-(pyrimidin-5-yl)-1,2,3,4-tetrahydroisoquinoline-1-carboxamide, TFA salt] | > 8.30 | 7.61 |  | 
7 | O=C(O)c1ccc(NC(=O)C2c3cccc(N4CC[C@H](O)C4=O)c3CCN2C(=O)c2cn(-c3cccc(Cl)c3F)nn2)cc1 (stereo partly drawn) [Example 196, 4-(2-(1-(3-Chloro-2-fluorophenyl)-1H-1,2,3-triazole-4-carbonyl)-5-((S)-3-hydroxy-2-oxopyrrolidin-1-yl)-1,2,3,4-tetrahydroisoquinoline-1-carboxamido)benzoic acid, TFA salt] | 8.15 |  |  | 7.92
8 | O=C1CCC2(CCN(c3cccc4c3CCN(C(=O)c3cnn(-c5cccc(Cl)c5F)c3)C4C(=O)Nc3ccc(C(=O)O)cc3)CC2)O1 (stereo not drawn) [Example 75, 4-(2-(1-(3-chloro-2-fluorophenyl)-1H-pyrazole-4-carbonyl)-5-(2-oxo-1-oxa-8-azaspiro[4.5]-decan-8-yl)-1,2,3,4-tetrahydroisoquinoline-1-carboxamido)benzoic acid, TFA salt] | > 8.30 |  |  | 7.59
9 | CN1CCN(c2cccc3c2CCN(C(=O)c2cn(-c4cccc(Cl)c4)nc2C(F)(F)F)C3C(=O)Nc2ccc(C(=O)O)cc2)CC1 (stereo not drawn) [Example 199, 4-(2-(1-(3-chlorophenyl)-3-(trifluoromethyl)-1H-pyrazole-4-carbonyl)-5-(4-methylpiperazin-1-yl)-1,2,3,4-tetrahydroisoquinoline-1-carboxamido)benzoic acid, 2 TFA salt] | 5.64 | < 5.22 |  | 
